# Several values for one entry are separate records, joined by “and”; a condition that tells them apart may be missing. Equal entries are not always repeated. Results filed as inconclusive are left out.
# Tested on: Lewis lung carcinoma i.m., BDF1 mice, T/C %
# Experiment: NCI In Vivo Anticancer Drug Screen. Data for tumor model Lewis Lung Carcinoma (intramuscular) in B6D2F1 (BDF1) mice
# Method in brief: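 Mice carrying transplantable tumours received test compound. Survival or tumour size was recorded and expressed as the treated-group value (T) divided by the vehicle-treated control-group value (C).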
smiles,measurement,setting,value
CCc1nc(N)nc(N)c1-c1ccc(Cl)cc1,T/C,"endpoint: mean tumor weight, dose: 64.0 mg/kg/injection, schedule: Q01DX009 (ip), vehicle: Klucel (hydroxypropylcellulose) (HPC), higher = larger tumour",26 % of control
same,T/C,"endpoint: mean tumor weight, dose: 64.0 mg/kg/injection, schedule: Q01DX009 (sc), vehicle: Klucel (hydroxypropylcellulose) (HPC), higher = larger tumour",41 % of control
same,T/C,"endpoint: mean tumor weight, dose: 64.0 mg/kg/injection, schedule: Q04DX003 (ip), vehicle: Klucel (hydroxypropylcellulose) (HPC), higher = larger tumour",70 % of control and 93 % of control
same,T/C,"endpoint: mean tumor weight, dose: 64.0 mg/kg/injection, schedule: Q08DX002 (ip), vehicle: Klucel (hydroxypropylcellulose) (HPC), higher = larger tumour",72 % of control and 81 % of control
same,T/C,"endpoint: mean tumor weight, dose: 128.0 mg/kg/injection, schedule: Q01DX001 (ip), vehicle: Klucel (hydroxypropylcellulose) (HPC), higher = larger tumour",81 % of control
same,T/C,"endpoint: mean tumor weight, dose: 128.0 mg/kg/injection, schedule: Q01DX001 (oral), vehicle: Klucel (hydroxypropylcellulose) (HPC), higher = larger tumour",82 % of control
same,T/C,"endpoint: mean tumor weight, dose: 128.0 mg/kg/injection, schedule: Q01DX001 (sc), vehicle: Klucel (hydroxypropylcellulose) (HPC), higher = larger tumour",50 % of control
same,T/C,"endpoint: mean tumor weight, dose: 128.0 mg/kg/injection, schedule: Q04DX003 (ip), vehicle: Klucel (hydroxypropylcellulose) (HPC), higher = larger tumour",71 % of control
same,T/C,"endpoint: median survival time, dose: 2.0 mg/kg/injection, schedule: Q06HX008 (ip), vehicle: Klucel (hydroxypropylcellulose) (HPC), higher = longer survival",92 % of control
same,T/C,"endpoint: median survival time, dose: 4.0 mg/kg/injection, schedule: Q01DX009 (ip), vehicle: Klucel (hydroxypropylcellulose) (HPC), higher = longer survival",95 % of control
same,T/C,"endpoint: median survival time, dose: 4.0 mg/kg/injection, schedule: Q01DX009 (sc), vehicle: Klucel (hydroxypropylcellulose) (HPC), higher = longer survival",100 % of control
same,T/C,"endpoint: median survival time, dose: 4.0 mg/kg/injection, schedule: Q06HX004 (ip), vehicle: Klucel (hydroxypropylcellulose) (HPC), higher = longer survival",107 % of control
same,T/C,"endpoint: median survival time, dose: 4.0 mg/kg/injection, schedule: Q06HX008 (ip), vehicle: Klucel (hydroxypropylcellulose) (HPC), higher = longer survival",88 % of control and 104 % of control
same,T/C,"endpoint: median survival time, dose: 8.0 mg/kg/injection, schedule: Q01DX001 (sc), vehicle: Klucel (hydroxypropylcellulose) (HPC), higher = longer survival",104 % of control
same,T/C,"endpoint: median survival time, dose: 8.0 mg/kg/injection, schedule: Q01DX009 (ip), vehicle: Klucel (hydroxypropylcellulose) (HPC), higher = longer survival",104 % of control
same,T/C,"endpoint: median survival time, dose: 8.0 mg/kg/injection, schedule: Q01DX009 (oral), vehicle: Klucel (hydroxypropylcellulose) (HPC), higher = longer survival",104 % of control
same,T/C,"endpoint: median survival time, dose: 8.0 mg/kg/injection, schedule: Q04DX003 (ip), vehicle: Klucel (hydroxypropylcellulose) (HPC), higher = longer survival",94 % of control
same,T/C,"endpoint: median survival time, dose: 8.0 mg/kg/injection, schedule: Q06HX004 (ip), vehicle: Klucel (hydroxypropylcellulose) (HPC), higher = longer survival",109 % of control
same,T/C,"endpoint: median survival time, dose: 8.0 mg/kg/injection, schedule: Q06HX008 (ip), vehicle: Klucel (hydroxypropylcellulose) (HPC), higher = longer survival",100 % of control
same,T/C,"endpoint: median survival time, dose: 8.0 mg/kg/injection, schedule: Q06HX012 (ip), vehicle: Klucel (hydroxypropylcellulose) (HPC), higher = longer survival",107 % of control
same,T/C,"endpoint: median survival time, dose: 8.0 mg/kg/injection, schedule: Q08DX002 (ip), vehicle: Klucel (hydroxypropylcellulose) (HPC), higher = longer survival",94 % of control
same,T/C,"endpoint: median survival time, dose: 12.5 mg/kg/injection, schedule: Q01DX011 (ip), vehicle: steriod suspending solution, higher = longer survival",103 % of control
same,T/C,"endpoint: median survival time, dose: 16.0 mg/kg/injection, schedule: Q01DX001 (ip), vehicle: Klucel (hydroxypropylcellulose) (HPC), higher = longer survival",100 % of control
same,T/C,"endpoint: median survival time, dose: 16.0 mg/kg/injection, schedule: Q01DX001 (sc), vehicle: Klucel (hydroxypropylcellulose) (HPC), higher = longer survival",96 % of control
same,T/C,"endpoint: median survival time, dose: 16.0 mg/kg/injection, schedule: Q01DX009 (ip), vehicle: Klucel (hydroxypropylcellulose) (HPC), higher = longer survival",108 % of control
same,T/C,"endpoint: median survival time, dose: 16.0 mg/kg/injection, schedule: Q01DX009 (oral), vehicle: Klucel (hydroxypropylcellulose) (HPC), higher = longer survival",100 % of control
same,T/C,"endpoint: median survival time, dose: 16.0 mg/kg/injection, schedule: Q01DX009 (sc), vehicle: Klucel (hydroxypropylcellulose) (HPC), higher = longer survival",109 % of control
same,T/C,"endpoint: median survival time, dose: 16.0 mg/kg/injection, schedule: Q04DX003 (ip), vehicle: Klucel (hydroxypropylcellulose) (HPC), higher = longer survival",92 % of control and 100 % of control
same,T/C,"endpoint: median survival time, dose: 16.0 mg/kg/injection, schedule: Q06HX008 (ip), vehicle: Klucel (hydroxypropylcellulose) (HPC), higher = longer survival",98 % of control
same,T/C,"endpoint: median survival time, dose: 32.0 mg/kg/injection, schedule: Q01DX001 (ip), vehicle: Klucel (hydroxypropylcellulose) (HPC), higher = longer survival",102 % of control
same,T/C,"endpoint: median survival time, dose: 32.0 mg/kg/injection, schedule: Q01DX001 (oral), vehicle: Klucel (hydroxypropylcellulose) (HPC), higher = longer survival",104 % of control
same,T/C,"endpoint: median survival time, dose: 32.0 mg/kg/injection, schedule: Q01DX001 (sc), vehicle: Klucel (hydroxypropylcellulose) (HPC), higher = longer survival",104 % of control
same,T/C,"endpoint: median survival time, dose: 32.0 mg/kg/injection, schedule: Q04DX003 (ip), vehicle: Klucel (hydroxypropylcellulose) (HPC), higher = longer survival",92 % of control
same,T/C,"endpoint: median survival time, dose: 32.0 mg/kg/injection, schedule: Q08DX002 (ip), vehicle: Klucel (hydroxypropylcellulose) (HPC), higher = longer survival",86 % of control and 102 % of control
same,T/C,"endpoint: median survival time, dose: 64.0 mg/kg/injection, schedule: Q01DX001 (oral), vehicle: Klucel (hydroxypropylcellulose) (HPC), higher = longer survival",104 % of control
same,T/C,"endpoint: median survival time, dose: 64.0 mg/kg/injection, schedule: Q01DX001 (sc), vehicle: Klucel (hydroxypropylcellulose) (HPC), higher = longer survival",90 % of control and 100 % of control
same,T/C,"endpoint: median survival time, dose: 64.0 mg/kg/injection, schedule: Q01DX009 (sc), vehicle: Klucel (hydroxypropylcellulose) (HPC), higher = longer survival",104 % of control
same,T/C,"endpoint: median survival time, dose: 64.0 mg/kg/injection, schedule: Q04DX003 (ip), vehicle: Klucel (hydroxypropylcellulose) (HPC), higher = longer survival",96 % of control and 109 % of control
same,T/C,"endpoint: median survival time, dose: 128.0 mg/kg/injection, schedule: Q01DX001 (ip), vehicle: Klucel (hydroxypropylcellulose) (HPC), higher = longer survival",107 % of control
same,T/C,"endpoint: median survival time, dose: 128.0 mg/kg/injection, schedule: Q01DX001 (oral), vehicle: Klucel (hydroxypropylcellulose) (HPC), higher = longer survival",102 % of control
